# Experimental data: US9487489B2, “Halogen-substituted pyrazole derivatives as pest-control agents” (BAYER CROPSCIENCE AKTIENGESELLSCHAFT, priority 2013, dated 2016)
# Assays:
# [1] = test system: adult houseflies (Musca domestica); experiment: Musca domestica test (MUSCDO); assay type: in vivo; conditions: application rate 100 ppm; after 2 days
# Experimental: F. Musca domestica Test (MUSCDO)
# (§1) Solvent: dimethyl sulphoxide
# (§2) To produce a suitable preparation of active compound, 10 mg of active compound are mixed with 0.5 ml of dimethyl sulphoxide, and the concentrate is diluted with water to the desired concentration.
# Vessels containing a sponge treated with sugar solution and the active compound preparation of the desired concentration are populated with 10 adult houseflies (Musca domestica).
# After 2 days, the kill in % is determined. 100% means that all of the flies have been killed; 0% means that none of the flies have been killed.
# [2] = test system: caterpillars of the armyworm (Spodoptera frugiperda); experiment: Spodoptera frugiperda spray test (SPODFR); assay type: in vivo; conditions: maize leaf discs, after 7 days
# Summary of the method: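 Percent kill read at day 7 on caterpillar-infested maize leaf discs. Discs were first sprayed with aqueous emulsifier-containing (1000 ppm) preparations made from acetone/dimethylformamide solutions, and dried. Scale: 0% none dead, 100% all dead.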
# [3] = test system: L1 larvae of the Australian sheep blowfly (Lucilia cuprina); experiment: Lucilia cuprina test (LUCICU); assay type: in vivo; conditions: application rate 100 ppm; after 2 days
# Experimental: E. Lucilia cuprina Test (LUCICU)
# as §1, §2
# About 20 L1 larvae of the Australian sheep blowfly (Lucilia cuprina) are transferred into a test vessel containing minced horsemeat and the active compound preparation of the desired concentration.
# After 2 days, the kill in % is determined 100% means that all of the larvae have been killed; 0% means that none of the larvae have been killed.
# [4] = test system: adult dog ticks (Rhipicephalus sanguineus); experiment: Rhipicephalus sanguineus in vitro contact test with adult brown dog ticks (T2); conditions: after 48 h
# Summary of the method: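 Acetone solutions coated onto test tube walls and floor, giving 5 μg/cm^2 at 900 ppm. Five to ten adult ticks held per tube in the dark at room temperature for 48 h, then heated at 45-50° C for up to 5 min; efficacy is the percentage of dead or moribund ticks unable to climb away.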
# [5] = test system: larvae of the mustard beetle (Phaedon cochleariae); experiment: Phaedon cochleariae spray test (PHAECO); assay type: in vivo; conditions: Chinese cabbage leaf discs, after 7 days
# Summary of the method: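 Kill of mustard beetle larvae is read as % mortality 7 days after spraying. Spray liquid: active compound in acetone plus dimethylformamide, brought up with water holding 1000 ppm alkylaryl polyglycol ether emulsifier and diluted further in emulsifier-water.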
# [6] = test system: adult cat fleas (Ctenocephalides felis); experiment: Ctenocephalides felis oral test (CTECFE); assay type: in vivo; conditions: application rate 100 ppm in citrated cattle blood; after 2 days
# Experimental: D. Ctenocephalides felis-oral Test (CTECFE)
# as §1
# To produce a suitable preparation of active compound, 10 mg of active compound are mixed with 0.5 ml of dimethyl sulphoxide. Dilution with citrated cattle blood gives the desired concentration.
# About 20 unfed adult cat fleas (Ctenocephalides felis) are placed into a chamber which is closed at the top and bottom with gauze. A metal cylinder whose bottom end is closed with a parafilm is placed onto the chamber. The cylinder contains the blood/active ingredient preparation, which can be imbibed by the fleas through the parafilm membrane.
# After 2 days, the kill in % is determined 100% means that all of the fleas have been killed; 0% means that none of the fleas have been killed.
# [7] = test system: engorged adult female cattle ticks (Boophilus microplus); experiment: Boophilus microplus injection test (BOOPMI Inj); assay type: in vivo; conditions: application rate 20 μg/animal; injection into abdomen; assessed after 7 days
# Experimental: C. Boophilus microplus-injection Test (BOOPMI Inj)
# as §1
# To produce a suitable preparation of active compound, 10 mg of active compound are mixed with 0.5 ml of solvent, and the concentrate is diluted with solvent to the desired concentration.
# 1 μl of the active compound solution is injected into the abdomen of 5 engorged adult female cattle ticks (Boophilus microplus). The animals are transferred into dishes and kept in a climate-controlled room.
# The activity is assessed after 7 days by laying of fertile eggs. Eggs whose fertility is not visible from the outside are stored in a climate-controlled cabinet until the larvae hatch after about 42 days. An efficacy of 100% means that none of the ticks has laid any fertile eggs; 0% means that all eggs are fertile.
# [8] = logP determination by HPLC on a reversed-phase column (C18), EEC Directive 79/831 Annex V.A8; assay type: physicochemical
# Summary of the method: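 Per EEC 79/831 Annex V.A8, values derive from HPLC retention at 2.0 ml/min and 55° C on a 50*4.6 C18 column. The 10→95% acetonitrile gradient (0.1%/0.09% formic acid) lasted 4.25 min plus a 1.25 min hold; mass detection was by MSD.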
# [9] = test system: greenhouse red spider mite (Tetranychus urticae); experiment: Tetranychus urticae spray test, OP-resistant (TETRUR); assay type: in vivo; conditions: bean leaf discs, after 6 days
# Summary of the method: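 Percent kill, scored 6 days post-spray (0% = none dead, 100% = all dead), on Phaseolus vulgaris leaf discs infested with every life stage of the OP-resistant spider mite. Compound dissolved in acetone plus DMF, diluted to test concentration with emulsifier-containing water (1000 ppm).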
# [10] = test system: adult cat fleas (Ctenocephalides felis); experiment: Ctenocephalides felis in vitro contact test with adult cat fleas (T1); conditions: after 48 h
# Summary of the method: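 Adult cat fleas (Ctenocephalides felis), 5-10 per tube, were exposed to the inner surface of 25 ml test tubes coated with compound in acetone. Tubes were incubated lying flat under ambient conditions. Efficacy was then read by standing tubes upright and knocking the fleas to the floor. Fleas that stayed motionless or moved uncoordinatedly counted as dead or moribund, where 100% means all fleas dead or moribund and 0% means none harmed.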
# [11] = HPLC on reversed-phase column (C18), acetonitrile/water with formic acid, EEC Directive 79/831 Annex V.A8
Structure (SMILES),efficacy (kill in %) [1] [%],efficacy in % ([2]; application rate 500 g/ha) [%],efficacy (kill in %) [3] [%],efficacy (dead or moribund ticks) ([4]; application rate 1 μg/cm^2) [%],efficacy in % ([5]; application rate 500 g/ha) [%],efficacy (kill in %) [6] [%],efficacy (laying of fertile eggs) [7] [%],efficacy in % ([2]; application rate 100 g/ha) [%],efficacy in % ([5]; application rate 100 g/ha) [%],"logP [8, 11]",efficacy in % ([9]; application rate 100 g/ha) [%],efficacy in % ([9]; application rate 500 g/ha) [%],efficacy (dead or moribund fleas) ([10]; application rate 1 μg/cm^2) [%],efficacy (dead or moribund fleas) ([10]; application rate 5 μg/cm^2) [%],efficacy (dead or moribund ticks) ([4]; application rate 5 μg/cm^2) [%],"logP ([8]; HPLC, reversed-phase C18, acetonitrile (0.1% formic acid)/water (0.09% formic acid) gradient)"
Cn1nc(C(F)(F)C(F)(F)F)c(C(F)(F)F)c1-n1cc(-c2cc(Cl)cc(C(=O)NC3(C#N)CC3)c2)cn1 [Ic-43],100,100,100,100,100,100,100,–,–,–,–,–,–,–,–,–
O=C(NC1CC1)c1cc(-c2cnn(-c3c(C(F)(F)F)c(C(F)(F)C(F)(F)F)nn3-c3ccccc3)c2)ccc1Cl [Ic-6],90,–,100,–,–,100,100,100,100,4.54,–,–,–,–,–,–
Cn1nc(C(F)(F)C(F)(F)F)c(C(F)(F)F)c1-n1cc(-c2cc(C(=O)NC3(C#N)CC3)cc(F)c2F)cn1 [Ic-64],80,–,100,–,100,100,100,100,–,–,100,–,–,–,–,–
CC(NC(=O)c1cc(-c2cnn(-c3c(C(F)(F)F)c(C(F)(F)C(F)(F)F)nn3C)c2)ccc1Cl)C(N)=O (centres unmarked) [Ic-154],90,100,100,–,100,100,100,–,–,–,–,100,100,80,–,–
Cn1nc(C(F)(F)C(F)(F)F)c(C(F)(F)F)c1-n1cc(-c2ccc(Cl)c(C(=O)Nc3ccccc3)c2)cn1 [Ic-136],90,100,100,–,100,100,100,–,–,–,–,100,–,–,–,–
N#CC1(NC(=O)c2cc(-c3cnn(-c4c(C(F)(F)F)c(C(F)(F)C(F)(F)F)nn4-c4ccccc4)c3)ccc2Cl)CC1 [Ic-7],100,–,100,–,–,100,100,100,100,4.43,–,–,–,–,–,–
Cc1nn(-c2c(C(F)(F)F)c(C(F)(F)C(F)(F)F)nn2C)cc1-c1ccc(Cl)c(C(=O)NC2CC2)c1 [Ic-12],100,–,100,–,–,100,100,100,100,3.97,–,–,100,100,–,–
Cn1nc(C(F)(F)C(F)(F)F)c(C(F)(F)F)c1-n1cc(-c2ccnc(C(=O)NC3(C#N)CC3)c2)cn1 [Ic-76],80,100,100,–,100,100,100,–,–,–,–,80,–,–,–,–
Cn1nc(C(F)(F)C(F)(F)F)c(C(F)(F)F)c1-n1cc(-c2cc(F)cc(C(=O)NC3CC3)c2)cn1 [Ic-39],100,100,100,–,100,100,100,100,–,–,100,–,–,–,–,–
COc1cc(C(=O)NC2CC2)cc(-c2cnn(-c3c(C(F)(F)F)c(C(F)(F)C(F)(F)F)nn3C)c2)c1 [Ic-62],100,100,100,–,100,95,100,–,–,–,–,–,–,–,–,–
Cn1nc(C(F)(F)C(F)(F)F)c(C(F)(F)F)c1-n1cc(-c2ccc(Cl)c(C(=O)Nc3ccccn3)c2)cn1 [Ic-140],90,100,100,–,100,100,100,–,–,–,–,100,100,100,–,–
Cn1nc(C(F)(F)C(F)(F)F)c(C(F)(F)F)c1-n1cc(-c2ccc(Cl)c(C(=O)NC3CC3)c2F)cn1 [Ic-106],100,83,100,–,100,100,100,–,–,–,–,–,–,–,100,–
Cn1nc(C(F)(F)C(F)(F)F)c(C(F)(F)F)c1-n1cc(-c2cc(F)cc(C(=O)NC3(C#N)CC3)c2)cn1 [Ic-38],100,100,100,–,100,100,100,–,–,–,–,–,–,–,–,–
Cn1nc(C(F)(F)C(F)(F)F)c(C(F)(F)F)c1-n1cc(-c2cccc(C(=O)NC3CC3)c2F)cn1 [Ic-33],100,83,100,–,100,100,100,–,–,–,–,–,–,–,–,–
Cn1nc(C(F)(F)C(F)(F)F)c(C(F)(F)F)c1-n1cc(-c2ccc(F)c(C(=O)NC3CC3)c2F)cn1 [Ic-174],100,100,100,100,100,100,100,–,–,–,–,–,–,–,100,–
Cn1nc(C(F)(F)C(F)(F)F)c(C(F)(F)F)c1-n1cc(-c2cc(C(=O)NC3CC3)cc(F)c2F)cn1 [Ic-61],80,–,100,–,100,100,100,100,–,–,–,–,–,–,80,–
Cn1nc(C(F)(F)C(F)(F)F)c(C(F)(F)F)c1-n1ccc(-c2ccc(Cl)c(C(=O)NC3(C#N)CC3)c2)n1 [Id-1],100,–,100,–,–,100,100,100,100,–,–,–,–,–,–,3.87
Cn1nc(C(F)(F)C(F)(F)F)c(C(F)(F)F)c1-n1cc(-c2cc(Cl)cc(C(=O)NC3CC3)c2)cn1 [Ic-44],80,100,100,–,100,100,100,–,–,–,–,80,–,–,–,–
